From US12685312B2, “Sulfonamide apyrase inhibitors” (Texas Crop Science, Inc., priority 2022, dated 2026)

What follows are compounds tested on apyrase (assay: Screen for apyrase inhibitors (Method 1, in vitro phosphate-release absorbance assay)). Details: inhibitor conc at 1 mM stock, 1 hr room temperature, absorbance 630 nm; rounded average of two assay results.
Type: biochemical
In short: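 Phosphate-release colorimetric assay (Windsor method) in 60 mM Hepes, 3 mM MgCl2, 3 mM CaCl2, 3 mM ATP, pH 6.5, with compound or DMSO control added. Released phosphate developed with ammonium molybdate and ascorbic acid/TCA, then stopped with citrate/acetic acid.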

Structure (SMILES)	% Inhibition of Apyrase
COc1ccc2c(c1)CCCN2C(=O)c1ccc(S(=O)(=O)Nc2ccccc2)cc1 [I-871, 4-(6-methoxy-1,2,3,4-tetrahydroquinoline-1-carbonyl)-N-phenylbenzenesulfonamide]	56%
COc1ccc2c(c1)CCCN2C(=O)c1ccc(S(=O)(=O)Nc2ccccc2C)cc1 [I-872, 4-(6-methoxy-1,2,3,4-tetrahydroquinoline-1-carbonyl)-N-(o-tolyl)benzenesulfonamide]	56%
COc1ccc(C(C)(C)C)cc1NC(=O)c1ccc(S(=O)(=O)N(C)c2ccccc2OC)cc1 [I-873, N-(5-(tert-butyl)-2-methoxyphenyl)-4-(N-(2-methoxyphenyl)-N-methylsulfamoyl)benzamide]	56%
CNC(=O)c1ccc(NC(=O)c2ccc(S(=O)(=O)Nc3ccc(C)cc3)cc2)cc1 [I-874, N-methyl-4-(4-(N-(p-tolyl)sulfamoyl)benzamido)benzamide]	56%
O=C(Nc1ccc2c(c1)OCCO2)c1ccc(C(=O)Nc2ccc3c(c2)OCCO3)cc1 [I-875, N1,N4-bis(2,3-dihydrobenzo[b][1,4]dioxin-6-yl)terephthalamide]	55%
O=C(Nc1ccc2c(c1)OCO2)c1ccc(C(=O)Nc2ccc3c(c2)OCO3)cc1 [I-876, N1,N4-bis(benzo[d][1,3]dioxol-5-yl)terephthalamide]	54%
COc1ccccc1N(C)S(=O)(=O)c1ccc(C(=O)N2CCCc3ccccc32)cc1 [I-877, N-(2-methoxyphenyl)-N-methyl-4-(1,2,3,4-tetrahydroquinoline-1-carbonyl)benzenesulfonamide]	54%
COc1ccccc1N(C)S(=O)(=O)c1ccc(C(=O)N2CCCSc3ccccc32)cc1 [I-878, N-(2-methoxyphenyl)-N-methyl-4-(2,3,4,5-tetrahydrobenzo[b][1,4]thiazepine-5-carbonyl)benzenesulfonamide]	54%
Cc1ccccc1NS(=O)(=O)c1ccc(C(=O)N2c3ccccc3CC2C)cc1 (stereo not drawn) [I-879, 4-(2-methylindoline-1-carbonyl)-N-(o-tolyl)benzenesulfonamide]	53%
COc1ccccc1NC(=O)c1ccc(S(=O)(=O)N(C)c2ccccc2OC)cc1 [I-880, N-(2-methoxyphenyl)-4-(N-(2-methoxyphenyl)-N-methylsulfamoyl)benzamide]	53%
CC(=O)c1cc2c(cc1NC(=O)c1ccc(S(=O)(=O)N3CCCc4ccccc43)cc1)OCO2 [I-881, N-(6-acetylbenzo[d][1,3]dioxol-5-yl)-4-((3,4-dihydroquinolin-1(2H)-yl)sulfonyl)benzamide]	53%
COc1ccc(NC(=O)c2cccc(S(=O)(=O)Nc3ccc4c(c3)OCO4)c2)cc1Cl [I-882, 3-(N-(benzo[d][1,3]dioxol-5-yl)sulfamoyl)-N-(3-chloro-4-methoxyphenyl)benzamide]	53%
COc1ccc2c(c1)CCCN2C(=O)c1ccc(S(=O)(=O)Nc2ccccc2F)cc1 [I-883, N-(2-fluorophenyl)-4-(6-methoxy-1,2,3,4-tetrahydroquinoline-1-carbonyl)benzenesulfonamide]	51%
Cc1ccc(NS(=O)(=O)c2ccc(C(=O)N3CCc4cc(S(N)(=O)=O)ccc43)cc2)cc1 [I-884, 1-(4-(N-(p-tolyl)sulfamoyl)benzoyl)indoline-5-sulfonamide]	48%
CCN(C(=O)c1ccc(S(=O)(=O)N2CCCc3ccccc32)cc1)c1ccccc1 [I-885, 4-((3,4-dihydroquinolin-1(2H)-yl)sulfonyl)-N-ethyl-N-phenylbenzamide]	47%
O=C(Nc1ccc(NS(=O)(=O)c2ccc3c(c2)OCCO3)cc1)c1cccc(N2CCCC2=O)c1 [I-886, N-(4-((2,3-dihydrobenzo[b][1,4]dioxine)-6-sulfonamido)phenyl)-3-(2-oxopyrrolidin-1-yl)benzamide]	43%
COc1ccc(NS(=O)(=O)c2ccc(C(=O)Nc3ccc4c(c3)OCCO4)cc2)cc1 [I-887, N-(2,3-dihydrobenzo[b][1,4]dioxin-6-yl)-4-(N-(4-methoxyphenyl)sulfamoyl)benzamide]	43%
Cc1ccc(NS(=O)(=O)c2ccc(C(=O)Nc3ccc(C)c(C)c3)cc2)cc1 [I-888, N-(3,4-dimethylphenyl)-4-(N-(p-tolyl)sulfamoyl)benzamide]	43%
Cc1nc2ccc(NC(=O)c3ccc(S(=O)(=O)N4CCCc5ccccc54)cc3)cc2s1 [I-889, 4-((3,4-dihydroquinolin-1(2H)-yl)sulfonyl)-N-(2-methylbenzo[d]thiazol-6-yl)benzamide]	39%
CN(c1ccccc1)S(=O)(=O)c1ccc(C(=O)N2CC(=O)Nc3ccccc32)cc1 [I-890, N-methyl-4-(3-oxo-1,2,3,4-tetrahydroquinoxaline-1-carbonyl)-N-phenylbenzenesulfonamide]	32%
Cc1ccc(NS(=O)(=O)c2ccc(C(=O)N3CC4CCCN4Cc4ccccc43)cc2)cc1 (stereo not drawn) [I-891, 4-(2,3,5,10,11,11a-hexahydro-1H-benzo[e]pyrrolo[1,2-a][1,4]diazepine-10-carbonyl)-N-(p-tolyl)benzenesulfonamide]	30%
COc1ccc([N+](=O)[O-])cc1NS(=O)(=O)c1ccc(C(=O)N2CCc3ccccc32)cc1 [I-892, 4-(indoline-1-carbonyl)-N-(2-methoxy-5-nitrophenyl)benzenesulfonamide]	29%
Cc1ccccc1NS(=O)(=O)c1ccc(C(=O)Nc2ccccc2C(=O)NC2CC2)cc1 [I-893, N-cyclopropyl-2-(4-(N-(o-tolyl)sulfamoyl)benzamido)benzamide]	20%
Cc1cccc(NS(=O)(=O)c2ccc(C(=O)Nc3cccc(C(=O)N(C)C)c3)cc2)c1C [I-894, 3-(4-(N-(2,3-dimethylphenyl)sulfamoyl)benzamido)-N,N-dimethylbenzamide]	18%
O=C(Nc1ccc(N2CCOCC2)cc1)c1ccc(S(=O)(=O)N2CCCc3ccccc32)cc1 [I-895, 4-((3,4-dihydroquinolin-1(2H)-yl)sulfonyl)-N-(4-morpholinophenyl)benzamide]	10%
COc1ccccc1NC(=O)c1ccc(NS(=O)(=O)c2ccc3c(c2)OCCO3)cc1 [I-898, 4-((2,3-dihydrobenzo[b][1,4]dioxine)-6-sulfonamido)-N-(2-methoxyphenyl)benzamide]	65%
Cc1ccc(NC(=O)c2ccc(NS(=O)(=O)c3ccc(F)c(F)c3)cc2)cc1 [I-899, 4-((3,4-difluorophenyl)sulfonamido)-N-(p-tolyl)benzamide]	65%
CCOc1ccc(NC(=O)c2ccc(NS(=O)(=O)c3cccc(C(F)(F)F)c3)cc2)cc1 [I-900, N-(4-ethoxyphenyl)-4-((3-(trifluoromethyl)phenyl)sulfonamido) benzamide]	65%
O=C(Nc1ccc(SC(F)F)cc1)c1ccc(NS(=O)(=O)c2cccc([N+](=O)[O-])c2)cc1 [I-901, N-(4-((difluoromethyl)thio)phenyl)-4-((3-nitrophenyl)sulfonamido)benzamide]	64%
O=C(Nc1ccc(F)cc1)c1ccc(NS(=O)(=O)c2ccc(Cl)c([N+](=O)[O-])c2)cc1 [I-902, 4-((4-chloro-3-nitrophenyl)sulfonamido)-N-(4-fluorophenyl)benzamide]	64%
